How the values were obtained:
[1] = LPS binding assay (coated wells); set-up: species or system E. coli
Method: K. pneumoniae (3×10^5 CFU/well), E. coli O111:B4 smooth-type LPS (5 μg/well), or bovine serum albumin (BSA, 5 μg/well) in 100 μL of bicarbonate buffer (pH 9.6) were coated onto wells of high-binding microtiter plate (Corning Costar, Cambridge, Mass.). Nonspecific binding was blocked with binding buffer (20 mM Tris-HCl, pH 7.4, 0.15 M NaCl, 5 mM CaCl2) containing 50 mg/mL BSA. Various concentrations of rTMD proteins without or with CD14 (10 μg/mL; R&D Systems) in binding buffer containing 1 mg/mL BSA were added to wells and incubated for 2 hours. In some experiments, 0.2 M mannose, 5 mM EDTA, or Le^y were included in the binding buffer to compete with LPS and rTMD1 binding. Antibody against the c-Myc epitope of the rTMD proteins was added to wells and incubated for 2 hours, and peroxidase-labeled secondary antibody followed. Binding of rTMD proteins was detected by measuring absorbance at 450 nm.

K. pneumoniae = test: Bacterial agglutination, FITC-labeled K. pneumoniae; conditions: 0.2 M mannose or 5 mM EDTA
Method: (§1) K. pneumoniae and E. coli DH5α (BCRC) were washed twice in 0.1 M sodium bicarbonate buffer (pH 9.6) and incubated with 0.1 mg/mL fluorescein isothiocyanate (FITC) at 37° C. in the dark. Each of 20 μg/mL of rTMD1, non-tagged rTMD1, mammalian rTMD1, and recombinant TM domains 2 and 3 (rTMD23) was co-incubated with FITC-labeled bacteria (1×10^5CFU/mL) in buffer (20 mM Tris, pH 7.4, 0.15 M NaCl, 5 mM CaCl2, 1 mg/mL BSA) with or without 0.2 M mannose or 5 mM EDTA. Samples were individually placed on a glass slide and fluorescently-labeled bacteria were observed microscopically to evaluate agglutination.

E. coli DH5α = test: Bacterial agglutination, FITC-labeled E. coli DH5α; conditions: 0.2 M mannose or 5 mM EDTA
Method: as §1

[2] = target: T1, HMGB1 and rTMD1 interaction (Homo sapiens, UniProt P07204); test: Effect of Le^y on the binding of HMGB1 with rTMD1
T1 construct: TMD1 (residues Ala^1-Ala^155); 6xHis (C); enterokinase cutting site (internal); made in house

rTMD1 [3] = test: Effect of Le^y on the blocking effect of rTMD1 on LPS-induced signaling pathways (Western blot); format: cell-based; conditions: rTMD1 20 μg/mL, LPS 100 ng/mL
Method: rTMD1 (0-50 μg/mL, equals 0-2.18 nmole/mL) pre-incubated without or with Escherichia coli (E. coli) LPS (LPS O111:B4, Sigma-Aldrich) in the absence or presence of Lewis Y (Le^y; Dextra Laboratories, Reading, UK) for 30 minutes was used to stimulate THP-1 or RAW 264.7 cells. Incubation period included 15 minutes for pIκB and IκB (B-9 and C-21, Santa Cruz Biotechnology, Santa Cruz, Calif., unless otherwise noted), 20 minutes for p38 (C-20) and pp38 (D-8), 30 minutes for ERK1/2 (K-23), pERK1/2 (E-4), lamin B2 (E-3, Zymed Laboratories, San Francisco, Calif.), NF-κB p50 (C-19) and NF-κB p65 nuclear translocation (C-20), and 24 hours for iNOS expression using a specific antibody (N-20).

rTMD1 [4] = target: T2, rTMD1 (Homo sapiens, UniProt P07204); test: rTMD1 ligand analysis (AlphaScreen); format: binding; conditions: mammalian- or Pichia-expressed rTMD1
T2 construct: TMD1 (residues Ala^1-Ala^155); made in house
Method: Biotin-polyacrylamide (Biotin-PAA)-sugars (GlycoTech, Rockville, Mass.), rTMD1, rabbit anti-mouse IgG antibody (Zymed), mouse anti-6× His tag antibody (Abcam, Cambridge, UK), and streptavidin-coated donor and protein A conjugated acceptor beads (PerkinElmer, Boston, Mass.) were diluted with assay buffer containing 25 mM Tris (pH 7.0), 25 mM CaCl2, and 1 mg/mL BSA to appropriate concentrations. The anti-6× His tag antibody, rabbit anti-mouse IgG antibody, and acceptor beads were incubated with assay buffer for 1 hour at 25° C. before use (as the acceptor mixture). Biotin-PAA-sugars, rTMD1, and donor beads were separately added to wells of ProxiPlate-384 assay plates (PerkinElmer) and incubated at 25° C. for 1 hour. An aliquot of the acceptor mixture was then added to the wells and incubated at 25° C. for another 2 hours. The results were read on a PerkinElmer Envision instrument using the AlphaScreen program. All the procedures and incubations were carried out in the dark.

T2 sequence (P07204 19-173): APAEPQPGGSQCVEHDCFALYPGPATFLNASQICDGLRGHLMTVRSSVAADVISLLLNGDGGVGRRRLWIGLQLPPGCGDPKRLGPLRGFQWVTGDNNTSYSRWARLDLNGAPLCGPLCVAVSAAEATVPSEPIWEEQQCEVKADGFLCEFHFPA
T1 sequence (P07204 19-173): as above
T1 sequence (P09429 whole entry partner): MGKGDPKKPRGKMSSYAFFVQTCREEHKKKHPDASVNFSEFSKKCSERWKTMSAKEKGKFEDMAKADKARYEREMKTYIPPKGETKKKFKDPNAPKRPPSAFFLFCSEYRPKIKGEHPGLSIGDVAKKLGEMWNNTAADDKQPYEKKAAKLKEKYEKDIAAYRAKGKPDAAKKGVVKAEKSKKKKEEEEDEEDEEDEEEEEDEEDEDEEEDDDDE

Molecule	effect on binding of rTMD1 to LPS ([1]; 0.2 M mannose or 5 mM EDTA, rTMD1 50 μg/mL)	effect on rTMD1 agglutination activity, K. pneumoniae (K. pneumoniae)	effect on rTMD1 agglutination activity, E. coli DH5α (E. coli DH5α)	effect on binding of rTMD1 with LPS ([1]; various concentrations of Le^y, FIG. 6B)	effect on HMGB1 and rTMD1 interaction [2]	effect on blocking effects of rTMD1 on LPS-induced ERK1/2 phosphorylation, IκBα degradation, and NF-κB p50 and p65 nuclear translocation (rTMD1 [3])	rTMD1 affinity of carbohydrate ligand (rTMD1 [4])
O=C(O)CN(CCN(CC(=O)O)CC(=O)O)CC(=O)O [EDTA, reference compound]	inhibited	attenuated	attenuated	–	–	–	–
Fucα1-2Galβ1-4(Fucα1-3)GlcNAc [Le^y]	–	–	–	specifically inhibited	could not abrogate	dose-dependently neutralize	specific ligand

Reference: patent US20120165244A1, “METHODS FOR BINDING LEWIS Y ANTIGEN” (priority 2008, published 2012)
